Here are results for 49 molecules from US8309552B2, “Immunomodulating heterocyclic compounds” (Medigene AG, priority 2003, dated 2012).

Molecules are shown by their SMILES. Read-outs that look alike come from different tables or passages of the source.

The subject of experiment [1] is production of Interleukin-2 (IL-2) by Human Jurkat T Cells. Nature of the experiment: Inhibition of production of interleukin-2 (IL-2) by human Jurkat T cells (Raji/Jurkat co-culture, anti-CD3, IL-2 ELISA). As to conditions: read-out: Percentage Inhibition (relative to DMSO = 0%); for inhibition at 30 µM: Compound Concentration 30 μM; for inhibition at 10 µM: Compound Concentration 10 μM. The class given is cell-based. The method, then:
• Collins A V et al. (2002) Immunity 17, 201-210 “The interaction properties of costimulatory molecules revisited” Inhibition of Production of Interleukin-2 (IL-2) by Human Jurkat T Cells. Method
Human Raji cells were dispensed at a concentration of 2×10^5 cells per well in RPMI-1640 medium supplemented with 10% fetal calf serum, 1% penicillin/streptomycin, 1% glutamine (RPMI medium) in a 96-well round bottom microtitre plate. Compounds under investigation (dissolved in 100% DMSO) were diluted to eight-fold the desired final concentration in RPMI medium and added to the required final concentration for a total volume of 200 μl per well. After 20 minutes incubation at 37° C., Jurkat T cells were added at a concentration of 2×10^5 cells per well. Monoclonal antibody to CD3 (UCHT1, R&D Systems) was added to the cultures at a final concentration of 1 μg per ml, and where indicated, monoclonal antibody to CD28 (CD28.2, BD-Pharmingen) was also added at a concentration of 2.5 μg per ml. Cells were cultured at 37° C. for 5 hours, after which the plates were centrifuged and the supernatants harvested for IL-2 ELISA assay using the IL-2 Eli-pair kit (DIACLONE Research, Besancon, France) according to the manufacturers instructions.
A general note: An ELISA detects its analyte on a solid surface through an enzyme-linked reagent.

Another experiment deals with T1, CD80-CD28 interaction (Homo sapiens, UniProt P33681).
T1 sequence (P33681 35-242 limits assumed): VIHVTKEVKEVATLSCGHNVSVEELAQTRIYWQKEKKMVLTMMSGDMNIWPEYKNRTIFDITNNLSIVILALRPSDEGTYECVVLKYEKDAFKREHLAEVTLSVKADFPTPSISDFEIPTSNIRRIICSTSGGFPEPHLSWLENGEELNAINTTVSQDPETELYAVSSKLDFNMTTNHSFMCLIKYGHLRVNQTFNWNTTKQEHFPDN
Nature of the experiment: Homogenous Time Resolved Fluorescence (HTRF) assay, cell free. The experiment is classed as binding. As to conditions: 4 hours at room temperature, read-out: Activity (EC50 in the HTRF assay). The procedure, abridged:
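In pH7.8 Tris-HCl/NaCl buffer with 0.1% BSA, a 100 μM-1.7 nM compound series was incubated for 4 h at room temperature with CD28 and CD80 fusions carrying europium and APC via linker antibodies. Time-resolved signals at 665 and 615 nm were read after 340 nm excitation; a C215 Fab swap defined background. EC50 given as banded classes.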

Setting [2] is: cell-free HTRF, compound concentration series 100 μM-1.7 nM.
Setting [3] is: cell free HTRF assay, concentration series 100 μM-1.7 nM.
Setting [4] is: cell-free HTRF, concentration series 100 μM-1.7 nM.

For orientation: inhibition means the share of the control response that was lost under treatment. One may read the EC50 as the concentration at which the effect is half-maximal. As for `CC(C)OCCCNC(=O)c1ccc(-n2[nH]c3c(nnc4ccccc43)c2=O)cc1` [Example 53], in experiment [1], the inhibition at 30 µM is 63.8%. Also, the EC50 on CD80-CD28 interaction (setting [2]) is less than 1 µM.
In the case of `CN1C(C)(C)CC(NC(=O)c2ccc(-n3[nH]c4c(nnc5ccccc54)c3=O)cc2)CC1(C)C` [Example 68], the inhibition at 10 µM in experiment [1] came out at 71.7%. The concentration for a half-maximal effect (EC50) on CD80-CD28 interaction (setting [2]) was less than 1 µM.
In the case of `CCN1CCCC1CNC(=O)Nc1ccc(-n2[nH]c3c(nnc4ccccc43)c2=O)cc1` (stereo not drawn) [Example 162], in experiment [1], the inhibition at 30 µM came out at 54.4%. Further, on CD80-CD28 interaction (setting [2]), the EC50 is less than 1 µM.
On to `O=C(NCCCNC1CCCCC1)c1ccc(-n2[nH]c3c(nnc4c(F)cccc43)c2=O)cc1` [Example 235], for which the inhibition at 10 µM in experiment [1] worked out at 59.3%. Moreover, the EC50 on CD80-CD28 interaction (setting [3]) was less than 1 µM.
For `CN1CCC(NC(=O)c2ccc(-n3[nH]c4c(nnc5c(F)cccc54)c3=O)cc2)CC1` [Example 349], in that order: 79.5% and less than 1 µM.
For `O=C(NCCCN1CCOCC1)c1ccc(-n2[nH]c3c(nnc4c(F)cccc43)c2=O)cc1` [Example 350], in that order: 74.2% and less than 1 µM.
Consider `O=C(NC1CN2CCC1CC2)c1ccc(-n2[nH]c3c(nnc4c(F)cccc43)c2=O)cc1` (stereo not drawn) [Example 353], for which the inhibition at 10 µM in experiment [1] worked out at 77.4%. Also, the EC50 at CD80-CD28 interaction (setting [3]) is less than 1 µM.
On to `O=C(NCC(F)F)c1ccc(-n2[nH]c3c(nnc4c(F)cccc43)c2=O)cc1` [Example 376], for which the inhibition at 10 µM in experiment [1] turned out to be 56.7%. In addition, the EC50 at CD80-CD28 interaction (setting [3]) is less than 1 µM.
On the same counts, the results for `O=C(NCCCNC1CCCCC1)c1ccc(-n2[nH]c3c(nnc4c(F)ccc(F)c43)c2=O)cc1` [Example 429] are 58.8% and less than 1 µM.
As to `CCCNCCCNC(=O)c1ccc(-n2[nH]c3c(nnc4c(F)cccc43)c2=O)cc1` [Example 442], in experiment [1], the inhibition at 10 µM was 58.9%. Moreover, the EC50 at CD80-CD28 interaction (setting [4]) is less than 1 µM.
For `CCN1CCC(NC(=O)c2ccc(-n3[nH]c4c(nnc5c(F)cccc54)c3=O)cc2)CC1` [Example 453], in that order: 55.7% and less than 1 µM.
On the same counts, the results for `CN(C)C1CCC(NC(=O)c2ccc(-n3[nH]c4c(nnc5c(F)cccc54)c3=O)cc2)CC1` (stereo not drawn) [Example 472] are 58.4% and less than 1 µM.
With `CC(C)CN(CCCCNC(=O)c1ccc(-n2[nH]c3c(nnc4c(F)cccc43)c2=O)cc1)CC(C)C` [Example 476], the EC50 on CD80-CD28 interaction (setting [4]) is less than 1 µM.
Turning to `CC1CC(C)CN(CCCCNC(=O)c2ccc(-n3[nH]c4c(nnc5c(F)cccc54)c3=O)cc2)C1` (stereo not drawn) [Example 477], the 50% effective concentration (EC50) on CD80-CD28 interaction (setting [4]) was less than 1 µM.
As for `CN(CCCCNC(=O)c1ccc(-n2[nH]c3c(nnc4c(F)cccc43)c2=O)cc1)C(C)(C)C` [Example 478], the inhibition at 10 µM in experiment [1] came to 56%. Besides, the 50% effective concentration (EC50) on CD80-CD28 interaction (setting [4]) was less than 1 µM.
`CC(C)(C)NCCCCNC(=O)c1ccc(-n2[nH]c3c(nnc4c(F)cccc43)c2=O)cc1` [Example 479]: the EC50 at CD80-CD28 interaction (setting [4]) is less than 1 µM.
The same measure, in the same setting: the result for `CCC(C)(C)NCCCCNC(=O)c1ccc(-n2[nH]c3c(nnc4c(F)cccc43)c2=O)cc1` [Example 480] reads less than 1 µM; that for `CC(C)(C)CNCCCCNC(=O)c1ccc(-n2[nH]c3c(nnc4c(F)cccc43)c2=O)cc1` [Example 481], less than 1 µM.
`N#CCNC(=O)c1ccc(-n2[nH]c3c(nnc4c(F)cccc43)c2=O)cc1` [Example 482]: the inhibition at 10 µM in experiment [1] is 39.2%. In addition, the half-maximal effective concentration (EC50) at CD80-CD28 interaction (setting [4]) is less than 1 µM.
As for `C=CCCN1CCC(NC(=O)c2ccc(-n3[nH]c4c(nnc5c(F)cccc54)c3=O)cc2)CC1` [Example 483], the EC50 on CD80-CD28 interaction (setting [4]) is less than 1 µM.
On to `O=C(NC1CCN(CCC(F)=C(F)F)CC1)c1ccc(-n2[nH]c3c(nnc4c(F)cccc43)c2=O)cc1` [Example 484], for which the EC50 at CD80-CD28 interaction (setting [4]) is less than 1 µM.
With `O=C(NCCCC(F)F)c1ccc(-n2[nH]c3c(nnc4c(F)cccc43)c2=O)cc1` [Example 485], the EC50 at CD80-CD28 interaction (setting [4]) is less than 1 µM.
Take `N#CCCNC(=O)c1ccc(-n2[nH]c3c(nnc4c(F)cccc43)c2=O)cc1` [Example 486]: the EC50 at CD80-CD28 interaction (setting [4]) is less than 1 µM.
Same read-out and setting: to `O=C(NC(CO)(CO)CO)c1ccc(-n2[nH]c3c(nnc4c(F)cccc43)c2=O)cc1` [Example 487] belongs less than 1 µM; to `O=C(NC1CCNC1)c1ccc(-n2[nH]c3c(nnc4c(F)cccc43)c2=O)cc1` (stereo not drawn) [Example 488], less than 1 µM; to `CN1CCCN(C(=O)c2ccc(-n3[nH]c4c(nnc5c(F)cccc54)c3=O)cc2)CC1` [Example 489], less than 1 µM.
The same measure, in the same setting: the result for `O=C(c1ccc(-n2[nH]c3c(nnc4c(F)cccc43)c2=O)cc1)N1CCCNCC1` [Example 490] reads less than 1 µM; that for `NC(=O)CNC(=O)c1ccc(-n2[nH]c3c(nnc4c(F)cccc43)c2=O)cc1` [Example 491], less than 1 µM.
Take `O=C(NC1CCC(=C(F)F)CC1)c1ccc(-n2[nH]c3c(nnc4c(F)cccc43)c2=O)cc1` (stereo not drawn) [Example 492]: on CD80-CD28 interaction (setting [4]), the EC50 is less than 1 µM.
With `CC(F)CCNC(=O)c1ccc(-n2[nH]c3c(nnc4c(F)cccc43)c2=O)cc1` (stereo not drawn) [Example 493], the half-maximal effective concentration (EC50) on CD80-CD28 interaction (setting [4]) is less than 1 µM.
`CC(C)C(C)(C#N)NC(=O)c1ccc(-n2[nH]c3c(nnc4c(F)cccc43)c2=O)cc1` (stereo not drawn) [Example 498]: the concentration giving a half-maximal response (EC50) at CD80-CD28 interaction (setting [4]) is less than 1 µM.
The same measure, in the same setting: the result for `NC1CCCC(NC(=O)c2ccc(-n3[nH]c4c(nnc5c(F)cccc54)c3=O)cc2)C1` (stereo not drawn) [Example 499] reads less than 1 µM; that for `O=C(NCC(F)F)c1ccc(-n2[nH]c3c(nnc4c(F)ccc(F)c43)c2=O)cc1` [Example 500], less than 1 µM; that for `O=C(N[C@H]1CC[C@H](O)CC1)c1ccc(-n2[nH]c3c(nnc4c(F)cccc43)c2=O)cc1` [Example 501], less than 1 µM.
For the molecule `CC(O)CCNC(=O)c1ccc(-n2[nH]c3c(nnc4c(F)cccc43)c2=O)cc1` (stereo not drawn) [Example 502], on CD80-CD28 interaction (setting [4]), the EC50 was less than 1 µM.
The same measure, in the same setting: the result for `O=C(NCC1CCCCCC1O)c1ccc(-n2[nH]c3c(nnc4c(F)cccc43)c2=O)cc1` (stereo not drawn) [Example 503] reads 1 to 10 µM; that for `O=C(NCC1CCCCC1O)c1ccc(-n2[nH]c3c(nnc4c(F)cccc43)c2=O)cc1` (stereo not drawn) [Example 504], 1 to 10 µM; that for `O=C(NCCNCCO)c1ccc(-n2[nH]c3c(nnc4c(F)cccc43)c2=O)cc1` [Example 505], less than 1 µM.
Same read-out and setting: to `O=C(NCC1CCCCCCC1O)c1ccc(-n2[nH]c3c(nnc4c(F)cccc43)c2=O)cc1` (stereo not drawn) [Example 506] belongs 1 to 10 µM; to `O=C(NC(CO)CO)c1ccc(-n2[nH]c3c(nnc4c(F)cccc43)c2=O)cc1` [Example 507], less than 1 µM; to `CC(CO)NC(=O)c1ccc(-n2[nH]c3c(nnc4c(F)cccc43)c2=O)cc1` (stereo not drawn) [Example 508], less than 1 µM.
On to `CCC(CO)NC(=O)c1ccc(-n2[nH]c3c(nnc4c(F)cccc43)c2=O)cc1` (stereo not drawn) [Example 509], for which the concentration giving a half-maximal response (EC50) on CD80-CD28 interaction (setting [4]) was less than 1 µM.
Same read-out and setting: to `O=C(N[C@H]1c2ccccc2C[C@H]1O)c1ccc(-n2[nH]c3c(nnc4c(F)cccc43)c2=O)cc1` [Example 510] belongs 1 to 10 µM; to `O=C(NC(CO)Cc1ccc(O)cc1)c1ccc(-n2[nH]c3c(nnc4c(F)cccc43)c2=O)cc1` (stereo not drawn) [Example 511], 1 to 10 µM.
With `O=C(N[C@@H](CO)[C@@H](O)c1ccccc1)c1ccc(-n2[nH]c3c(nnc4c(F)cccc43)c2=O)cc1` [Example 513], on CD80-CD28 interaction (setting [4]), the EC50 is 1 to 10 µM.
Consider `O=C(NC(CO)Cc1ccccc1)c1ccc(-n2[nH]c3c(nnc4c(F)cccc43)c2=O)cc1` (stereo not drawn) [Example 514], for which, on CD80-CD28 interaction (setting [4]), the EC50 was less than 1 µM.
Consider `O=C(NC(CO)Cc1c[nH]c2ccccc12)c1ccc(-n2[nH]c3c(nnc4c(F)cccc43)c2=O)cc1` (stereo not drawn) [Example 515], for which the EC50 at CD80-CD28 interaction (setting [4]) was 1 to 10 µM.
The same measure, in the same setting: the result for `CC(C)(CO)NC(=O)c1ccc(-n2[nH]c3c(nnc4c(F)cccc43)c2=O)cc1` [Example 516] reads greater than 10 µM; that for `CC(CO)(CO)NC(=O)c1ccc(-n2[nH]c3c(nnc4c(F)cccc43)c2=O)cc1` [Example 517], less than 1 µM.
